We go through 32 molecules from patent US12239643B2, “Therapeutic agent for inflammatory diseases, autoimmune diseases, fibrotic diseases, and cancer diseases” (MEIJI SEIKA PHARMA CO., LTD., priority 2018, dated 2025).

Structures are written as SMILES. pIC50: −log10 of the molar value.

The subject of one assay is PDE4. Briefly: Evaluation of PDE4 inhibitory activity, scintillation proximity assay. In kind it is biochemical. The note with it: scintillation proximity assay; class symbols of Evaluation 1; read-out: PDE4 Inhibitory Activity (concentration for the inhibition rate of 50%, IC50), Evaluation 1. The protocol: The BDE4 inhibitory activity was measured using scintillation proximity assay (SPA) as follows. First, a test compound dissolved in dimethyl sulfoxide was diluted 1:10 in reaction buffer solution which contained 50 mM of Tris-HCl with pH 7.4, 8.3 mM of MgCl2, 1.7 mM of EGTA, and 3 mg/mL of bovine serum albumin (BSA). Then, 10 μL of the diluted solution was added in a 96-well assay plate. Moreover, 50 μL of PDE4 (enzyme preparation) diluted 1:375 in the reaction buffer solution was added, and then 40 μL of [2,8-^3H]-adenosine-3′,5′-cyclic phosphate triethylammonium salt diluted 1:1000 in the reaction buffer solution was added. The mixture was allowed to stand at room temperature for 120 minutes. Thereafter, […] of RNA binding YSi-SPA beads suspension containing ZnSO4 was added and the mixture was allowed to stand at room temperature for 15 minutes, followed by adsorption of the enzyme reaction product to the beads. After that, the radioactivity was measured using a liquid scintillation counter for a 96-well plate. The mixture without the enzyme preparation added but only the reaction buffer solution added is a blank, and the mixture with the enzyme preparation added and only dimethyl sulfoxide added instead of the test compound is a control.
In addition, the PDE4 inhibitory activity (concentration that inhibits PDE4 activity by 50%=concentration for the inhibition rate of 50% (IC50)) of the test compound was calculated from the inhibition curves based on the inhibition rates for various concentrations of the test compound.
In general terms: Scintillation proximity formats need no separation of bound from free tracer.
In the case of `FC(F)(F)Oc1c(Cl)cc(-c2nccs2)c2oc(N3CC4CCCC(C3)N4)nc12` [Example 2, 2-(3,9-Diazabicyclo[3.3.1]nonan-3-yl)-5-chloro-7-(thiazol-2-yl)-4-(trifluoromethoxy)benzo[d]oxazole], the pIC50 was over 7.00.

On to `CN(C)C(=O)c1cc(-c2nccs2)c2oc(N3CC4CCC(C3)N4)nc2c1` [Example 94, 2-(3,8-Diazabicyclo[3.2.1]octan-3-yl)-N,N-dimethyl-7-(thiazol-2-yl)benzo[d]oxazole-5-carboxamide], for which the pIC50 is over 7.00.

As for `NS(=O)(=O)c1cc(-c2nccs2)c2oc(N3CC4CCCC(C3)N4)nc2c1` [Example 59, 2-(3,9-Diazabicyclo[3.3.1]nonan-3-yl)-7-(thiazol-2-yl)benzo[d]oxazole-5-sulfonamide], the pIC50 is over 7.00.

Turning to `COCCOC(c1cc(-c2nccs2)c2oc(N3CC4CCC(C3)N4)nc2c1)C(F)(F)F` (centres unmarked) [Example 147, 2-(3,8-Diazabicyclo[3.2.1]octan-3-yl)-7-(thiazol-2-yl)-5-(2,2,2-trifluoro-1-(2-methoxyethoxy)ethyl)benzo[d]oxazole], the pIC50 is over 7.00.

For `CCOC(=O)c1cc(-c2nccs2)c2oc(N3CC4CC(C3)N4)nc2c1C(F)(F)F` [Example 165, Ethyl 2-(3,6-diazabicyclo[3.1.1]heptan-3-yl)-7-(thiazol-2-yl)-4-(trifluoromethyl)benzo[d]oxazole-5-carboxylate], the pIC50 is over 7.00.

As for `O=C(c1cc(-c2nccs2)c2oc(N3CC4CCC(C3)N4)nc2c1)N1CCOCC1` [Example 95, (2-(3,8-Diazabicyclo[3.2.1]octan-3-yl)-7-(thiazol-2-yl)benzo[d]oxazol-5-yl) (morpholino)methanone], the pIC50 was over 7.00.

Regarding `CSc1cc(-c2nccs2)c2oc(N3CC4CCC(C3)N4)nc2c1` [Example 39, 2-(3,8-Diazabicyclo[3.2.1]octan-3-yl)-5-(methylthio)-7-(thiazol-2-yl)benzo[d]oxazole], the pIC50 was over 7.00.

Consider `COc1cc(-c2nccs2)c2oc(N3CC4CCCC(C3)N4)nc2c1` [Example 62, 2-(3,9-Diazabicyclo[3.3.1]nonan-3-yl)-5-methoxy-7-(thiazol-2-yl)benzo[d]oxazole], for which the pIC50 was over 7.00.

For `CC(=O)Nc1cc(-c2nccs2)c2oc(N3CC4CC(C3)N4)nc2c1` [Example 49, N-(2-(3,6-diazabicyclo[3.1.1]heptan-3-yl)-7-(thiazol-2-yl)benzo[d]oxazol-5-yl)acetamide], the pIC50 is 6.00 to 7.00.

As for `Cc1ccc(-c2nccs2)c2oc(N3CC4CC(C3)N4)nc12` [Example 26, 2-(3,6-Diazabicyclo[3.1.1]heptan-3-yl)-4-methyl-7-(thiazol-2-yl)benzo[d]oxazole], the pIC50 was over 7.00.

On to `COC(C)(c1cc(-c2nccs2)c2oc(N3CC4CCCC(C3)N4)nc2c1)C(F)(F)F` (centres unmarked) [Example 162], for which the pIC50 is over 7.00.

Turning to `CC(=O)Nc1ccc(-c2nccs2)c2oc(N3CC4CCCC(C3)N4)nc12` [Example 34, N-(2-(3,9-Diazabicyclo[3.3.1]nonan-3-yl)-7-(thiazol-2-yl)benzo[d]oxazol-4-yl)acetamide], the pIC50 is over 7.00.

Turning to `COCc1cc(-c2nccs2)c2oc(N3CC4CCC(C3)N4)nc2c1C(F)(F)F` [Example 167, 2-(3,8-Diazabicyclo[3.2.1]octan-3-yl)-5-(methoxymethyl)-7-(thiazol-2-yl)-4-(trifluoromethyl)benzo[d]oxazole], the pIC50 is over 7.00.

On to `OC(c1cc(-n2cccn2)c2oc(N3CC4CCC(C3)N4)nc2c1)C(F)(F)F` (centres unmarked) [Example 140, 1-(2-(3,8-Diazabicyclo[3.2.1]octan-3-yl)-7-(1H-pyrazol-1-yl)benzo[d]oxazol-5-yl)-2,2,2-trifluoroethan-1-ol], for which the pIC50 is over 7.00.

Turning to `OC(c1ccc(-c2nccs2)c2oc(N3CC4CC(C3)N4)nc12)C(F)F` (centres unmarked) [Example 125, 1-(2-(3,6-Diazabicyclo[3.1.1]heptan-3-yl)-7-(thiazol-2-yl)benzo[d]oxazol-4-yl)-2,2-difluoroethan-1-ol], the pIC50 was over 7.00.

The same assay, now with this note: scintillation proximity assay; read-out: PDE4 Inhibitory Activity (Evaluation 1; concentration for the inhibition rate of 50%).
As for `O=C(O)COC(c1ccc(-c2nccs2)c2oc(N3CC4CC(C3)N4)nc12)C(F)(F)F` (centres unmarked) [Example 253, 2-(1-(2-(3,6-Diazabicyclo[3.1.1]heptan-3-yl)-7-(thiazol-2-yl)benzo[d]oxazol-4-yl)-2,2,2-trifluoroethoxy)acetic acid], the pIC50 is over 7.00.

Turning to `CC(C)(O)COC(c1ccc(-c2nccs2)c2oc(N3CC4CC(C3)N4)nc12)C(F)(F)F` (centres unmarked) [Example 255], the pIC50 was over 7.00.

For `OCC(F)(F)Oc1ccc(-n2cccn2)c2oc(N3CC4CC(C3)N4)nc12` [Example 320, 2-((2-(3,6-Diazabicyclo[3.1.1]heptan-3-yl)-7-(1H-pyrazol-1-yl)benzo[d]oxazol-4-yl)oxy)-2,2-difluoroethan-1-ol], the pIC50 is over 7.00.

For `COC(C)(C)COC(c1ccc(-c2nccs2)c2oc(N3CC4CC(C3)N4)nc12)C(F)(F)F` (centres unmarked) [Example 281, 2-(3,6-Diazabicyclo[3.1.1]heptan-3-yl)-7-(thiazol-2-yl)-4-(2,2,2-trifluoro-1-(2-methoxy-2-methylpropoxy)ethyl)benzo[d]oxazole], the pIC50 is over 7.00.

As to `CN(CCO)S(=O)(=O)c1ccc(-c2nccs2)c2oc(N3CC4CC(C3)N4)nc12` [Example 389, 2-(3,6-Diazabicyclo[3.1.1]heptan-3-yl)-N-(2-hydroxyethyl)-N-methyl-7-(thiazol-2-yl)benzo[d]oxazole-4-sulfonamide], the pIC50 was over 7.00.

`NC(=O)COC(c1ccc(-c2nccs2)c2oc(N3CC4CC(C3)N4)nc12)C(F)(F)F` (centres unmarked) [Example 256, 2-(1-(2-(3,6-Diazabicyclo[3.1.1]heptan-3-yl)-7-(thiazol-2-yl)benzo[d]oxazol-4-yl)-2,2,2-trifluoroethoxy)acetamide]: the pIC50 is over 7.00.

On to `CC(O)(c1cc(-c2nccs2)c2oc(N3CC4CC(C3)N4)nc2c1OC(F)(F)F)C(F)(F)F` (centres unmarked) [Example 216, 2-(2-(3,6-Diazabicyclo[3.1.1]heptan-3-yl)-7-(thiazol-2-yl)-4-(trifluoromethoxy)benzo[d]oxazol-5-yl)-1,1,1-trifluoropropan-2-ol], for which the pIC50 was over 7.00.

As to `CC(O)(c1cc(-c2nccs2)c2oc(N3CC4CCC(C3)N4)nc2c1OC(F)(F)F)C(F)(F)F` (centres unmarked) [Example 217, 2-(2-(3,8-Diazabicyclo[3.2.1]octan-3-yl)-7-(thiazol-2-yl)-4-(trifluoromethoxy)benzo[d]oxazol-5-yl)-1,1,1-trifluoropropan-2-ol], the pIC50 was over 7.00.

In the case of `CCOC(c1ccc(-c2nccs2)c2oc(N3CC4CC(C3)N4)nc12)C(F)(F)F` (centres unmarked) [Example 224, 2-(3,6-Diazabicyclo[3.1.1]heptan-3-yl)-4-(1-ethoxy-2,2,2-trifluoroethyl)-7-(thiazol-2-yl)benzo[d]oxazole], the pIC50 is over 7.00.

On to `OC1(COC(c2ccc(-c3nccs3)c3oc(N4CC5CC(C4)N5)nc23)C(F)(F)F)CC1` (centres unmarked) [Example 232, 1-((1-(2-(3,6-Diazabicyclo[3.1.1]heptan-3-yl)-7-(thiazol-2-yl)benzo[d]oxazol-4-yl)-2,2,2-trifluoroethoxy)methyl)cyclopropan-1-ol], for which the pIC50 was over 7.00.

Regarding `OCCOC(c1ccc(-c2nccs2)c2oc(N3CC4CCC(C3)N4)nc12)C(F)(F)F` (centres unmarked) [Example 225, 2-(1-(2-(3,8-Diazabicyclo[3.2.1]octan-3-yl)-7-(thiazol-2-yl)benzo[d]oxazol-4-yl)-2,2,2-trifluoroethoxy)ethan-1-ol], the pIC50 was over 7.00.

As for `CC(C)(O)c1cc(-c2cscn2)c2oc(N3CC4CC(C3)N4)nc2c1OC(F)(F)F` [Example 288, 2-(2-(3,6-Diazabicyclo[3.1.1]heptan-3-yl)-7-(thiazol-4-yl)-4-(trifluoromethoxy)benzo[d]oxazol-5-yl)propan-2-ol], the pIC50 is over 7.00.

For the molecule `CN(CCO)C(=O)C(F)(F)Oc1ccc(-c2nccs2)c2oc(N3CC4CC(C3)N4)nc12` [Example 407, 2-((2-(3,6-Diazabicyclo[3.1.1]heptan-3-yl)-7-(thiazol-2-yl)benzo[d]oxazol-4-yl)oxy)-2,2-difluoro-N-(2-hydroxyethyl)-N-methylacetamide], the pIC50 was over 7.00.

As to `CC(C)(O)COc1ccc(-c2nccs2)c2oc(N3CC4CC(C3)N4)nc12` [Example 279, 1-((2-(3,6-Diazabicyclo[3.1.1]heptan-3-yl)-7-(thiazol-2-yl)benzo[d]oxazol-4-yl)oxy)-2-methylpropan-2-ol], the pIC50 is over 7.00.

For `CC(C)(O)c1cc(-c2nccs2)c2oc(N3CC4CC(C3)N4)nc2c1OC(F)(F)F` [Example 196, 2-(2-(3,6-Diazabicyclo[3.1.1]heptan-3-yl)-7-(thiazol-2-yl)-4-(trifluoromethoxy)benzo[d]oxazol-5-yl)propan-2-ol], the pIC50 is over 7.00.

For `COC(=O)c1ccc(-c2nccs2)c2oc(N3CC4CCC(C3)N4)nc12` [Example 237, Methyl 2-(3,8-diazabicyclo[3.2.1]octan-3-yl)-7-(thiazol-2-yl)benzo[d]oxazole-4-carboxylate], the pIC50 was over 7.00.

For the molecule `O=C(O)c1cc(-c2nccs2)c2oc(N3CC4CCC(C3)N4)nc2c1OC(F)(F)F` [Example 189, 2-(3,8-Diazabicyclo[3.2.1]octan-3-yl)-7-(thiazol-2-yl)-4-(trifluoromethoxy)benzo[d]oxazole-5-carboxylic acid], the pIC50 was 6.00 to 7.00.
